In one assay the target is T1, tankyrase 1 (TNKS1) (Homo sapiens, UniProt O95271).
T1 construct: tankyrase 1 (1,024-1,327aa, SAM+PARP); made in house; host or cells: cell-free protein expression system
The assay is described as follows: Tankyrase inhibitory activity test (ELISA, auto-poly(ADP-ribosyl)ation), tankyrase 1. In kind it is biochemical. The conditions noted are these: Flag tagged tankyrase 1 (1,024-1,327aa, SAM+PARP); read-out: TNKS1 (inhibitory activity against tankyrase 1, IC50). The essentials:
(§1)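 Cell-free-expressed Flag-tagged TNKS1 (1,024-1,327aa, SAM+PARP) or TNKS2 (613-1,116aa, ANK5+SAM+PARP) was captured on anti-FLAG plates and pre-incubated 10 min at RT with compound (pH 8.0, MgCl2, DTT). Auto-PARylation was started with NAD solution (225 μM NAD, 25 μM biotin-NAD), 45 min at 30 °C. Detection by HRP-streptavidin chemiluminescence; IC50 from residual activity.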

A further assay deals with T2, tankyrase 2 (TNKS2) (Homo sapiens, UniProt Q9H2K2).
T2 construct: tankyrase 2 (613-1,116aa, ANK5+SAM+PARP); made in house; host or cells: cell-free protein expression system
The assay is described as follows: Tankyrase inhibitory activity test (ELISA, auto-poly(ADP-ribosyl)ation), tankyrase 2. The class given is biochemical. The conditions noted are these: Flag tagged tankyrase 2 (613-1,116aa, ANK5+SAM+PARP); read-out: TNKS2 (inhibitory activity against tankyrase 2, IC50). The essentials:
as §1
For orientation: An ELISA detects its analyte on a solid surface through an enzyme-linked reagent.

Assay [1] concerns human colorectal cancer cell line COLO-320DM. The assay is described as follows: Cell proliferation inhibitory activity test (Celltiter-Glo). In kind it is cell-based. The conditions noted are these: COLO-320DM cells, 96 hours.

As a reminder, the IC50 is the concentration that gives 50% inhibition. A word on the GI50: it is the concentration at which growth is held to half of that of the control.

Where only a bound is given, the exact number is not on record here.

T1 sequence (O95271 1024-1327): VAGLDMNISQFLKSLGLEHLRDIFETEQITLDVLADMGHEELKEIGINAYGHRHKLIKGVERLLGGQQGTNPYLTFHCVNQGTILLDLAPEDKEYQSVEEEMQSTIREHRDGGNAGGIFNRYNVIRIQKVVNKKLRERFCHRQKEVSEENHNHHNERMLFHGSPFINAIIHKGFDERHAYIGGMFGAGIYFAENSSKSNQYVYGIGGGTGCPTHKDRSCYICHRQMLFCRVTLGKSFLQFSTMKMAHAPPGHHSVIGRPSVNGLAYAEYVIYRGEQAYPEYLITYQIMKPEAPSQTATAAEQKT

As to `COc1ccc(-c2n[nH]nc2C2NC(=O)c3ccccc3N2)cc1` (stereo not drawn) [Example 59, 2-[5-(4-Methoxyphenyl)-2H-1,2,3-triazol-4-yl]-2,3-dihydro-1H-quinazolin-4-one], the half-inhibitory concentration (IC50) at tankyrase 1 (TNKS1) is 0.02 to 0.05 µM; at tankyrase 2 (TNKS2) it was below 0.005 µM. In addition, the GI50 in assay [1] is 1 to 10 µM.

Turning to `CN1c2ccccc2C(=O)NC1c1n[nH]nc1-c1ccc(Br)cc1` (stereo not drawn) [Example 60, 2-[4-(4-Bromophenyl)-2H-1,2,3-triazol-5-yl]-1-methyl-2,3-dihydroquinazolin-4-one], the IC50 on tankyrase 1 (TNKS1) and on tankyrase 2 (TNKS2) was 0.005 to 0.02 µM throughout. Besides, the 50% growth inhibitory concentration (GI50) in assay [1] is 1 to 10 µM.

With `CN1CCN(c2ccc(-c3cccc(-c4n[nH]nc4C4NC(=O)c5ccccc5N4C)c3)cc2)CC1` (stereo not drawn) [Example 61, 1-Methyl-2-[5-[3-[4-(4-methylpiperazin-1-yl)phenyl]phenyl]-2H-1,2,3-triazol-4-yl]-2,3-dihydroquinazolin-4-one], the IC50 at tankyrase 1 (TNKS1) and at tankyrase 2 (TNKS2) was 0.005 to 0.02 µM in each case. Moreover, in assay [1], the 50% growth inhibitory concentration (GI50) is at least 10 µM.

On to `CN1c2ccccc2C(=O)NC1c1n[nH]nc1-c1cccc(-c2ccc(N3CCOCC3)cc2)c1` (stereo not drawn) [Example 62, 1-Methyl-2-[4-[3-(4-morpholin-4-ylphenyl)phenyl]-2H-1,2,3-triazol-5-yl]-2,3-dihydroquinazolin-4-one], for which the half-inhibitory concentration (IC50) at tankyrase 1 (TNKS1) and at tankyrase 2 (TNKS2) was 0.005 to 0.02 µM each time. The GI50 in assay [1] was at least 10 µM.

As to `CCOc1ccc(-c2n[nH]nc2C2NC(=O)c3ccccc3N2C)cc1` (stereo not drawn) [Example 63, 2-[5-(4-Ethoxyphenyl)-2H-1,2,3-triazol-4-yl]-1-methyl-2,3-dihydroquinazolin-4-one], the IC50 on tankyrase 1 (TNKS1) and at tankyrase 2 (TNKS2) was 0.005 to 0.02 µM each time. The 50% growth inhibitory concentration (GI50) in assay [1] lay in the range of 1 to 10 µM.

As for `CN1c2ccccc2C(=O)NC1c1n[nH]nc1-c1ccc(OCC(F)(F)F)cc1` (stereo not drawn) [Example 64, 1-Methyl-2-[4-[4-(2,2,2-trifluoroethoxy)phenyl]-2H-1,2,3-triazol-5-yl]-2,3-dihydroquinazolin-4-one], the concentration for half-maximal inhibition (IC50) on tankyrase 1 (TNKS1) was in the range of 0.02 to 0.05 µM; on tankyrase 2 (TNKS2), 0.005 to 0.02 µM. Moreover, the GI50 in assay [1] is at least 10 µM.

For `Cc1cccc2c1NC(c1n[nH]nc1-c1ccc(Br)cc1)NC2=O` (stereo not drawn) [Example 66, 2-[4-(4-Bromophenyl)-2H-1,2,3-triazol-5-yl]-8-methyl-2,3-dihydro-1H-quinazolin-4-one], the figures for the 50% inhibitory concentration (IC50) at tankyrase 1 (TNKS1) and at tankyrase 2 (TNKS2) were 0.005 to 0.02 µM and below 0.005 µM, respectively. Moreover, the 50% growth inhibitory concentration (GI50) in assay [1] is at least 10 µM.

For the compound `COc1ccc(-c2n[nH]nc2C2NC(=O)c3cccc(O)c3N2)cc1` (stereo not drawn) [Example 67, 8-Hydroxy-2-[5-(4-methoxyphenyl)-2H-1,2,3-triazol-4-yl]-2,3-dihydro-1H-quinazolin-4-one], the 50% inhibitory concentration (IC50) on tankyrase 1 (TNKS1) and at tankyrase 2 (TNKS2) was 0.005 to 0.02 µM throughout. Further, the GI50 in assay [1] is at least 10 µM.

With `COc1ccc(-c2n[nH]nc2C2NC(=O)c3cccc4c3N2CCO4)cc1` (stereo not drawn) [Example 68, 2-[5-(4-Methoxyphenyl)-2H-1,2,3-triazol-4-yl]-10-oxa-1,3-diazatricyclo[7.3.1.0^5,13]trideca-5,7,9(13)-trien-4-one], the IC50 at tankyrase 1 (TNKS1) and at tankyrase 2 (TNKS2) was 0.005 to 0.02 µM throughout. For the same compound, the concentration for 50% growth inhibition (GI50) in assay [1] was 1 to 10 µM.

For `COc1ccc(-c2n[nH]nc2C2NC(=O)c3cccc(C(F)(F)F)c3N2)cc1` (stereo not drawn) [Example 71, 2-[5-(4-Methoxyphenyl)-2H-1,2,3-triazol-4-yl]-8-(trifluoromethyl)-2,3-dihydro-1H-quinazolin-4-one], the IC50 on tankyrase 1 (TNKS1) and on tankyrase 2 (TNKS2) was 0.02 to 0.05 µM in each case. Moreover, in assay [1], the 50% growth inhibitory concentration (GI50) is 1 to 10 µM.

With `Cc1cccc2c1NC(c1n[nH]nc1-c1ccc(OCC(F)(F)F)cc1)NC2=O` (stereo not drawn) [Example 72, 8-Methyl-2-[4-[4-(2,2,2-trifluoroethoxy)phenyl]-2H-1,2,3-triazol-5-yl]-2,3-dihydro-1H-quinazolin-4-one], the half-inhibitory concentration (IC50) at tankyrase 1 (TNKS1) and at tankyrase 2 (TNKS2) was 0.005 to 0.02 µM throughout. Besides, the GI50 in assay [1] lay within 1 to 10 µM.

For `Cc1cccc2c1NC(c1n[nH]nc1-c1ccc(OC(F)F)cc1)NC2=O` (stereo not drawn) [Example 73, 2-[4-[4-(Difluoromethoxy)phenyl]-2H-1,2,3-triazol-5-yl]-8-methyl-2,3-dihydro-1H-quinazolin-4-one], the IC50 on tankyrase 1 (TNKS1) and at tankyrase 2 (TNKS2) was 0.02 to 0.05 µM in each case. Moreover, in assay [1], the GI50 was at least 10 µM.

Turning to `CCCOc1ccc(-c2n[nH]nc2C2NC(=O)c3cccc(C)c3N2)cc1` (stereo not drawn) [Example 74, 8-Methyl-2-[5-(4-propoxyphenyl)-2H-1,2,3-triazol-4-yl]-2,3-dihydro-1H-quinazolin-4-one], the concentration for half-maximal inhibition (IC50) at tankyrase 1 (TNKS1) and on tankyrase 2 (TNKS2) was 0.005 to 0.02 µM each time. In addition, the GI50 in assay [1] was in the range of 1 to 10 µM.

On to `CCOc1ccc(-c2n[nH]nc2C2NC(=O)c3cccc4c3N2CC4)cc1` (stereo not drawn) [Example 75, 11-[5-(4-Ethoxyphenyl)-2H-1,2,3-triazol-4-yl]-1,10-diazatricyclo[6.3.1.0^4,12]dodeca-4(12),5,7-trien-9-one], for which the half-maximal inhibitory concentration (IC50) on tankyrase 1 (TNKS1) and on tankyrase 2 (TNKS2) was 0.005 to 0.02 µM each time. Besides, the GI50 in assay [1] is 1 to 10 µM.

For `Cc1cccc2c1NC(c1n[nH]nc1-c1ccc(OC(C)C)cc1)NC2=O` (stereo not drawn) [Example 76, 8-Methyl-2-[5-(4-propan-2-yloxyphenyl)-2H-1,2,3-triazol-4-yl]-2,3-dihydro-1H-quinazolin-4-one], the half-maximal inhibitory concentration (IC50) is 0.02 to 0.05 µM at tankyrase 1 (TNKS1) and 0.005 to 0.02 µM on tankyrase 2 (TNKS2). For the same compound, the GI50 in assay [1] was 1 to 10 µM.

With `[2H]C([2H])([2H])Oc1ccc(-c2n[nH]nc2C2NC(=O)c3cccc(C)c3N2)cc1` (stereo not drawn) [Example 77], the 50% inhibitory concentration (IC50) on tankyrase 1 (TNKS1) and at tankyrase 2 (TNKS2) was 0.005 to 0.02 µM in each case. In addition, in assay [1], the 50% growth inhibitory concentration (GI50) is below 1 µM.

Consider `Cc1cccc2c1NC(c1n[nH]nc1-c1ccc(OCC(F)F)cc1)NC2=O` (stereo not drawn) [Example 78, 2-[4-[4-(2,2-Difluoroethoxy)phenyl]-2H-1,2,3-triazol-5-yl]-8-methyl-2,3-dihydro-1H-quinazolin-4-one], for which the values for the 50% inhibitory concentration (IC50) on tankyrase 1 (TNKS1) and at tankyrase 2 (TNKS2) were 0.005 to 0.02 µM and below 0.005 µM, respectively. Moreover, the GI50 in assay [1] fell in the range of 1 to 10 µM.

`CCOC(=O)COc1ccc(-c2n[nH]nc2C2NC(=O)c3cccc(C)c3N2)cc1` (stereo not drawn) [Example 79]: the concentration for half-maximal inhibition (IC50) at tankyrase 1 (TNKS1) and at tankyrase 2 (TNKS2) was 0.005 to 0.02 µM throughout. Also, the GI50 in assay [1] is at least 10 µM.

As to `CCOc1ccc(-c2n[nH]nc2C2NC(=O)c3cccc(CC)c3N2)cc1` (stereo not drawn) [Example 80, 2-[5-(4-Ethoxyphenyl)-2H-1,2,3-triazol-4-yl]-8-ethyl-2,3-dihydro-1H-quinazolin-4-one], the IC50 on tankyrase 1 (TNKS1) and on tankyrase 2 (TNKS2) was 0.005 to 0.02 µM throughout. Also, the GI50 in assay [1] is below 1 µM.

Take `CCc1cccc2c1NC(c1n[nH]nc1-c1ccc(OC)cc1)NC2=O` (stereo not drawn) [Example 81, 8-Ethyl-2-[4-(4-methoxyphenyl)-2H-1,2,3-triazol-5-yl]-2,3-dihydro-1H-quinazolin-4-one]: the half-inhibitory concentration (IC50) at tankyrase 1 (TNKS1) is 0.005 to 0.02 µM; at tankyrase 2 (TNKS2), below 0.005 µM. Also, in assay [1], the GI50 was 1 to 10 µM.

As for `COc1ccc(-c2n[nH]cc2C2NC(=O)c3ccccc3N2)cc1` (stereo not drawn) [Example 82, 2-[5-(4-Methoxyphenyl)-1H-pyrazol-4-yl]-2,3-dihydro-1H-quinazolin-4-one], the IC50 on tankyrase 1 (TNKS1) and at tankyrase 2 (TNKS2) was 0.005 to 0.02 µM throughout. The concentration for 50% growth inhibition (GI50) in assay [1] was at least 10 µM.

Take `COc1ccc(-c2n[nH]cc2C2NC(=O)c3ccccc3N2C)cc1` (stereo not drawn) [Example 83, 2-[5-(4-Methoxyphenyl)-1H-pyrazol-4-yl]-1-methyl-2,3-dihydroquinazolin-4-one]: the IC50 at tankyrase 1 (TNKS1) and on tankyrase 2 (TNKS2) was 0.005 to 0.02 µM each time. Also, the GI50 in assay [1] fell in the range of 1 to 10 µM.

As for `O=C1NC(c2n[nH]nc2-c2ccc(OCC(F)F)cc2)N2CCc3cccc1c32` (stereo not drawn) [Example 84, 11-[5-[4-(2,2-Difluoroethoxy)phenyl]-2H-1,2,3-triazol-4-yl]-1,10-diazatricyclo[6.3.1.0^4,12]dodeca-4(12),5,7-trien-9-one], the IC50 at tankyrase 1 (TNKS1) and at tankyrase 2 (TNKS2) was 0.005 to 0.02 µM throughout. The GI50 in assay [1] is at least 10 µM.

Consider `COc1ccc(-c2c[nH]nc2C2NC(=O)c3ccccc3N2)cc1` (stereo not drawn) [Example 85, 2-[4-(4-Methoxyphenyl)-1H-pyrazol-3-yl]-2,3-dihydro-1H-quinazolin-4-one], for which the figures for the IC50 at tankyrase 1 (TNKS1) and at tankyrase 2 (TNKS2) were 0.005 to 0.02 µM and below 0.005 µM, respectively. The GI50 in assay [1] fell in the range of 1 to 10 µM.

Take `COc1ccc(-c2c[nH]nc2C2NC(=O)c3ccccc3N2C)cc1` (stereo not drawn) [Example 86, 2-[4-(4-Methoxyphenyl)-1H-pyrazol-3-yl]-1-methyl-2,3-dihydro-1H-quinazolin-4-one]: the half-inhibitory concentration (IC50) at tankyrase 1 (TNKS1) and on tankyrase 2 (TNKS2) was below 0.005 µM each time. Besides, the 50% growth inhibitory concentration (GI50) in assay [1] fell in the range of 1 to 10 µM.

Turning to `COc1ccc(-c2c[nH]nc2C2NC(=O)c3cccc(C)c3N2)cc1` (stereo not drawn) [Example 87, 2-[4-(4-Methoxyphenyl)-1H-pyrazol-3-yl]-8-methyl-2,3-dihydro-1H-quinazolin-4-one], the IC50 on tankyrase 1 (TNKS1) and at tankyrase 2 (TNKS2) was below 0.005 µM each time. For the same compound, the concentration for 50% growth inhibition (GI50) in assay [1] lay within 1 to 10 µM.

The record behind these values is US11566017B2, “Dihydroquinazolinone compound or pharmacologically acceptable salt, and cell growth inhibitor” (RIKEN, priority 2017, dated 2023).
